This is an account of results in US11628146B2, “Estrogen receptor ligand treatment for neurodegenerative diseases” (The Regents of the University of California, priority 2014, dated 2023).

Entries after “also recorded” stand apart in the source; their conditions may differ.

Assay [1] concerns EAE in C57BL/6 mice. Put plainly: Rotarod testing of motor coordination and balance in EAE, C57BL/6 mice. The class given is in vivo, mouse. Conditions: for Rotarod Score: significance vs vehicle. Further details: key to Rotarod Score: n.s. = not significant; *p < 0.05; ***p = 0.0004; ****p < 0.0001; n.i. = not informative. The protocol:
Rotarod Testing. Motor behavior was tested up to two times per week for each mouse using a rotarod apparatus (Med Associates Inc., St. Albans, Vt.). Briefly, animals were placed on a rotating horizontal cylinder for a maximum of 200 seconds. The amount of time the mouse remained walking on the cylinder, without falling, was recorded. Each mouse was tested on a speed of 3-30 rpm and given three trials for any given day. The three trials were averaged to report a single value for an individual mouse, and then averages were calculated for all animals within a given treatment group. The first two trial days prior to immunization (day 0), served as practice trials.

Assay [2] concerns cerebrum and cerebellum of female C57BL/6 mice with EAE. Put plainly: Cerebral and cerebellar neuropathology (gray and white matter) in EAE. Conditions: 30 mg/kg every other day; vs Vehicle EAE. The class given is in vivo, mouse. The protocol:
Histological Preparation. Mice were exposed to a lethal dose of isoflurane and perfused transcardially with ice-cold 1×PBS for 8-15 min, followed by 10% formalin for 10-15 min. Spinal cords and brains were dissected and submerged in 10% formalin overnight at 4° C., followed by 30% sucrose in PBS for 24 h. Tissues were embedded in […] solution for cryostat sectioning then post-fixed overnight in 10% formalin and cryoprotected in 30% sucrose. The embedded tissues were stored in −80° C. after flash frozen in dry ice. 40 μm thick free-floating spinal cord cross-sections, and sagittal brain sections were obtained with a microtome b cryostat (model HM505E) at −20° C. Tissues were collected serially and stored in 1×PBS with 1% sodium azide in 4° C. until immunohistochemistry.
Immunofluorescence. Prior to histological staining, […] free-floating sections were thoroughly washed with 1×PBS to remove residual sodium azide. In the case of anti-MBP labeling, tissue sections were processed with an additional 1 hour incubation with 5% glacial acetic acid in 100-proof ethanol at room temperature (RT). After washing tissue sections were permeabilized with 0.3% TritonX-100 and 2% normal goat serum in 1×PBS for 30 minutes at room temperature and blocked with 10% normal goat serum in 1×PBS for 1 hour. Tissues were then incubated with primary antibodies overnight in 4° C. The following primary antibody (Ab) were used: Rat anti-MBP (Millipore) at 1:1000 dilutions, Rabbit anti-NF200 (Sigma Aldrich) at 1:750 dilutions, Rabbit anti-beta-APP (Life Technologies) at 1:200 dilutions, Mouse anti-NeuN at 1:1000 dilutions (Millipore), Rabbit anti-PSD95, and Rabbit anti-Synapsin 1 at 1:500 dilutions (Millipore), and Rat anti-CD45 at 1:1500 dilutions (Millipore). The next day tissues were washed and incubated with secondary antibodies conjugated to Cy5 or Cy3 (Millipore) for 1 hour at room temperature. A nuclear stain DAPI (2 ng/mL; Molecular Probes) was added 10 minutes prior to final washes after secondary Ab incubation. Sections were mounted on slides, allowed to semi-dry, and cover slipped in fluoromount G (Fisher Scientific). IgG-control experiments were performed for all primary Ab, and only non-immunoreactive tissues under these conditions were analyzed.
Chromagen Immunohistochemistry. […] Tissues were then incubated with primary antibodies overnight in 4° C. The following primary antibodies were used: Rat anti-CD3 at 1:2000 dilutions (BD Pharmingen), anti-Calbindin D28K at 1:1000 dilutions (Millipore), and Rabbit anti-Iba1 at 1:10000 dilutions (Wako Chemicals), were added for 2 hour at room temperature, and then placed in 4° C. overnight. Tissue sections then followed with secondary Ab labeling at 1:1000 dilutions (Vector labs) for 1 hour at room temperature and then with Avidin-Biotin Conjugation solution (Vector Labs) for 1 hour at room temperature. Tissue sections were treated with DAB peroxidase substrate (Vector labs) according to manufacturer instructions. IgG-control experiments were performed for all primary Ab, and only non-immunoreactive tissues under these conditions were analyzed.
Microscopy and Quantification. Three spinal cord cross-sections at the C5-12 level from each mouse (n=3-6) were captured under microscope at 10× magnification. To quantify demyelination in the spinal cord and cerebellum, white matter was manually delineated on the basis of DAPI staining, and MBP staining intensity was calculated and reported in the sampled area. Axonal damage was assessed by counting beta-APP^+ cells in a confocal 10× microscope in spinal cord. Axonal densities were calculated by counting the number of NF200^+ or NeuN^+ neuronal cells in a 10× confocal image in the sampled area of the captured tissue section. Cerebellar Purkinje (Calbindin^+) cells were manually counted using a brightfield 10× microscope over the entire sagittal cerebellum. […]

On to `Oc1ccc(C2(c3ccccc3F)CCC(F)(F)CC2)cc1` [AC-186], for which the “Rotarod Score” value in assay [1] (C57BL/6 F, AC186 3 mg/kg, sesame vehicle) was “n.s”. Besides, the “Rotarod Score” value in assay [1] (C57BL/6 F, AC186 10 mg/kg, miglylol vehicle) is reported as “n.s”. Also, the “Rotarod Score” value in assay [1] (C57BL/6 F, AC186 10 mg/kg, sesame vehicle) is listed as “n.s”. Further, in assay [1] (C57BL/6 F, AC186 30 mg/kg, miglylol vehicle), the “Rotarod Score” value is “*** (***p = 0.0004)”. The “Rotarod Score” value in assay [1] (C57BL/6 F, AC186 30 mg/kg, sesame vehicle) is reported as “n.s”. Further, the “Rotarod Score” value in assay [1] (C57BL/6 M, AC186 30 mg/kg, miglylol vehicle) is listed as “**** (****p < 0.0001)”. Further, in assay [1] (C57BL/6 M, AC186 30 mg/kg, sesame vehicle), the “Rotarod Score” value is recorded as “n.s”. Moreover, the Rotarod times entry in assay [1] (female C57BL/6, 30 mg/kg in miglyol, vs miglyol vehicle) is recorded as “significant efficacy in the rotarod experiment; also recorded: beneficial effects; also recorded: showed an improvement; also recorded: significant improvement”. The “Rotarod performance at the final two time-points” value in assay [1] (female C57BL/6, 30 mg/kg in sesame oil, days 48 and 50, 200 second test) was “performed perfectly”. In addition, the Rotarod times entry in assay [1] (female C57BL/6, 30 mg/kg in sesame oil, vs vehicle) was “No significant effect was observed”. Also, the Rotarod times entry in assay [1] (male C57BL/6, 30 mg/kg in miglyol, vs miglyol alone) is “performed significantly better; also recorded: better rotarod scores”. In addition, the Rotarod times entry in assay [1] (male C57BL/6, 30 mg/kg in sesame oil, vs sesame oil alone) is reported as “did not perform significantly better”. Also, in assay [2], the “Axonal densities (NF200), cerebellar white matter” value is given as “a protective effect; also recorded: significantly more axon numbers”; the “Axonal densities (NF200), cerebral white matter (splenium of the corpus callosum)” value is listed as “a protective effect; also recorded: significantly more axon numbers”; the “Calbindin+ Purkinje cells, cerebellar gray matter” value was “prevented; also recorded: a protective effect; also recorded: higher numbers of Calbindin^+ Purkinje cells”; the “Myelin staining intensity (MBP), cerebellar white matter” value was “a protective effect; also recorded: higher MBP staining intensity”. Besides, in assay [2], the “Myelin staining intensity (MBP), cerebral white matter (splenium of the corpus callosum)” value is “a protective effect; also recorded: a trend for higher MBP staining intensity”; the “NeuN+ neuronal cells, cerebral cortex gray matter” value is recorded as “prevented; also recorded: a protective effect; also recorded: higher numbers of NeuN^+ cortical neurons”; the “PSD-95 staining, cerebellar gray matter (molecular layer)” value is “prevented; also recorded: a protective effect; also recorded: greater PSD-95 and Synapsin1 staining”; the “PSD-95 staining, cerebral cortex gray matter” value is recorded as “prevented; also recorded: a protective effect; also recorded: greater PSD-95 staining”. For the same compound, in assay [2], the “Synapsin1 staining, cerebellar molecular layer” value is “a protective effect; also recorded: greater PSD-95 and Synapsin1 staining”; the “Synapsin-1 staining, cerebral cortex gray matter” value is “No effect was observed; also recorded: no significant differences in Synapsin-1 staining”.
